Data from US20130028920A1, “STABILIZED ANTIBODY PREPARATIONS AND USES THEREOF” (UNIVERSITE DE GENEVE, priority 2010, published 2013).
“Also recorded” adds a separate entry of the source.

Experiments:
Assay type in all cases: physicochemical
[1] = tested on: Avastin®; experiment: Effect of AMP on the unmodified commercial bevacizumab formulation (Avastin®), stability by AFFF-MALS; details: 40° C., 28 days, p<0.05
Method: (§1) All samples were stored at 40° C. during 28 days. Samples were analyzed directly after preparation (t0) and after 7, 14 and 28 days. The aggregation state of the antibodies was measured by multi-angle light scattering (MALS) after separation by asymmetrical flow field-flow fractionation (AFFF). […] Data were collected and analysed with the Astra software (Wyatt Technology Europe GmbH, Dernbach, Germany). The aggregation state was expressed as the percentage of monomers versus time.
All samples are stored at a temperature of 40° C. for 28 days and the stability is measured as described in Example 3 and compared to a sample of Avastin® alone stored under the same conditions.

[2] = tested on: bevacizumab; experiment: Stability of dialyzed, pre-stressed bevacizumab alone and with AMP, percentage of monomers by AFFF-MALS
Method: as §1, with “A 50 mM phosphate buffer pH 7.0 was used. The buffer choice was based on a pH range and buffer capacity that is physiologically tolerated and that is acceptable for the stability of antibodies. […]” for “All samples were stored at 40° C. during 28 days.”

[3] = tested on: Avastin®; experiment: Stability of pre-stressed Avastin® with ATP, GMP or sucrose phosphate, by AFFF-MALS; details: for stabilization of Avastin® across molar ratios: Avastin®:compound 1:1, 1:10 and 1:100, pre-stressed, PBS pH 7.0, 40° C., up to 28 days; for Short-term effects on the antibody, compared among ATP, GMP and sucrose phosphate: short term after addition
Method: as §1, with “Samples were analyzed directly after preparation (t0) and after 7, 14 and 28 days.” left out
After pre-stressing, Avastin® samples were combined with either ATP, GMP or sucrose phosphate at three Avastin®: compound of formula (I) molar ratios (1:1, 1:10 and 1:100). All samples are stored at a temperature of 40° C. for 28 days and stability is measured as described in Example 3 and compared to a sample of Avastin® alone stored under the same conditions. For GMP, a dilution of GMP was made in PBS pH 7.0 and pH was adjusted to 7.0 before the combination with Avastin® to prevent the risk of higher order aggregates caused by the addition of NaOH directly to the antibody formulation.

[4] = molar ratio 1:1, t1 (1 day at 40° C.)
[5] = molar ratio 1:10, t1 (1 day at 40° C.)
[6] = molar ratio 1:100, t1 (1 day at 40° C.)

Molecule | stabilization of the antibody (increase in monomers) versus Avastin® alone ([1]; Avastin®:AMP 1:10) | stabilization of the antibody (increase in monomers) versus Avastin® alone ([1]; Avastin®:AMP 1:100) | percentage of monomers ([2]; formulations of bevacizumab with AMP (1:153 by context), 14 days at 40° C., pH 7.0, n=3) | percentage of monomers ([2]; molar ratio bevacizumab:AMP 1:1.53, 14 days at 40° C., pH 7.0) | percentage of monomers ([2]; molar ratio bevacizumab:AMP 1:1.53, 28 days at 40° C., pH 7.0, n=3) | percentage of monomers ([2]; molar ratio bevacizumab:AMP 1:15.3, 14 days at 40° C., pH 7.0) | percentage of monomers ([2]; molar ratio bevacizumab:AMP 1:15.3, 28 days at 40° C., pH 7.0, n=3) | percentage of monomers ([2]; molar ratio bevacizumab:AMP 1:153, 28 days at 40° C., pH 7, n=3) | stabilization of Avastin® across molar ratios [3] | aggregation breaker strength in experiments ([3]; compared with AMP) | stabilizing effect versus Avastin® alone [3, 4] | stabilizing effect versus Avastin® alone [3, 5] | stabilizing effect versus Avastin® alone [3, 6] | stabilizing effect versus Avastin® alone ([3]; molar ratio 1:100, t28 (28 days at 40° C.)) | Short-term effects on the antibody, compared among ATP, GMP and sucrose phosphate [3] | stabilizing properties, compared among ATP, GMP and sucrose phosphate ([3]; after 28 days of storage at 40° C.)
Nc1ncnc2c1ncn2[C@@H]1O[C@H](COP(=O)(O)O)[C@@H](O)[C@H]1O [AMP, adenosine 5′-monophosphate] | significant stabilization is observed at t1, t14 and t28 | such a stabilization is observed only at longer incubation times (t14 and t28) | higher than 94% | higher than 80% | higher than 76% | higher than 80% | higher than 76% | around 90% | – | – | – | – | – | – | – | –
Nc1ncnc2c1ncn2[C@@H]1O[C@H](COP(=O)(O)OP(=O)(O)OP(=O)(O)O)[C@@H](O)[C@H]1O [ATP, adenosine 5′-triphosphate] | – | – | – | – | – | – | – | – | concentration dependent stabilization | less strong breaker than AMP | stabilizing effect is observed | stabilizing effect is observed | stabilizing effect is observed | significant stabilizing effect | most pronounced | –
Nc1nc2c(ncn2[C@@H]2O[C@H](COP(=O)(O)O)[C@@H](O)[C@H]2O)c(=O)[nH]1 [GMP, guanosine 5′-monophosphate] | – | – | – | – | – | – | – | – | concentration dependent stabilization | – | destabilizing | destabilizing | shows an ability to stabilize the antibody | – | – | most distinct stabilizing properties
sucrose phosphate | – | – | – | – | – | – | – | – | concentration-dependent stabilization; also recorded: concentration-dependent stabilizing effect continues up to 28 days | – | stabilizing effect is observed | stabilizing effect is observed | stabilizing effect is observed | – | most pronounced | –
